Test results published in US10899699B2, “Vinylogous phenethylamines as neurotransmitter releasers” (RESEARCH TRIANGLE INSTITUTE, priority 2016, dated 2021).
Where two headings read alike, the source gives them in different places.

Legend:
[1] = target: T1, Dopamine Transporter (DAT) (Rattus norvegicus, UniProt P23977); test: DAT release assay, rat brain synaptosomes; format: biochemical; conditions: for EC50: release of [3H]MPP+ from rat striatum synaptosomes, mean±SD (n=3)
T1 construct: Synaptosomes were prepared from rat striatum for the DAT assays; from tissue; host or cells: rat striatum synaptosomes
Procedure: (§1) BAT activity was measured using synaptosomes prepared from rat brain homogenates according to the protocol developed by Rothman and co-workers (Rothman, et al., Eur. J. Pharmacol. 2002, 447(1), 51). Compounds were first screened in uptake inhibition and release assays to determine the exact mode of drug action. […] Substrate reversal experiments were conducted to validate substrate activity. The analogs were also tested for agonist activity at the serotonin-2 receptor subtypes (5-HT2A, 5-HT2B, 5-HT2C) using in vitro calcium mobilization assays in transfected HEK293 cells as previously described. These receptors are associated with the pharmacology of abused drugs, as 5-HT2A agonists are thought to be hallucinogenic while […] are associated with valvular heart disease and pulmonary hypertension; activity at these receptors would be considered off-target liabilities. On the other hand, agonists at 5-HT2C may be beneficial as potential pharmacotherapies for drug abuse and appetite suppression.
(§2) All animal studies were conducted in facilities fully accredited by the Association for the Assessment and Accreditation of Laboratory Animal Care (AAALAC) and experiments were performed in accordance with the Institutional Care and Use Committee (IACUC) of the National Institute on Drug Abuse Intramural Research Program (NIDA IRP). Rats were euthanized by CO2 narcosis, and brains were processed to yield synaptosomes as previously described (Rothman, R B, et al., Eur. J. Pharmacol. 2002, 447(1), 51.). Synaptosomes were prepared from rat striatum for the DAT assays, whereas synaptosomes were prepared from whole brain minus striatum and cerebellum for the NET and SERT assays.
(§3) For release assays, 9 nM [^3H]1-methyl-4-phenylpyridinium ([^3H]MPP+) was used as the radiolabeled substrate for DAT and NET, while 5 nM [^3H]5-HT was used as a substrate for SERT. All buffers used in the release assay methods contained 1 μM reserpine to block vesicular uptake of substrates. The selectivity of release assays was optimized for a single transporter by including unlabeled blockers to prevent the uptake of [^3H]MPP+ or [^3H]5-HT by competing transporters. Synaptosomes were preloaded with radiolabeled substrate in Krebs-phosphate buffer for 1 h (steady state). Release assays were initiated by adding 850 μL of preloaded synaptosomes to 150 μL of test drug. Release was terminated by vacuum filtration and retained radioactivity was quantified as described for uptake inhibition. Concentration-response curves were generated to yield EC50 values.
(§4) Substrate reversal experiments were conducted to validate substrate activity. The releasing ability of test compounds was tested at an EC80 concentration in the absence and presence of an uptake inhibitor (250 nM […] for DAT, 166 nM desipramine for NET, 100 nM fluoxetine for SERT).

human 5-HT2A receptor = target: T2, human 5-HT2A receptor (Homo sapiens, UniProt P28223); test: 5-HT2A calcium mobilization assay in HEK293 cells (agonist activity); format: cell-based
T2 construct: expressed in transfected cells
Procedure: (§5) BAT activity was measured using synaptosomes prepared from rat brain homogenates according to the protocol developed by Rothman and co-workers (Rothman, et al., Eur. J. Pharmacol. 2002, 447(1), 51). Compounds were first screened in uptake inhibition and release assays to determine the exact mode of drug action. Compounds active in both assays are releasers while compounds active only in the uptake inhibition assay are uptake inhibitors. Active compounds were then fully characterized by running 8-point concentration response curves in the assay corresponding to their mechanism of action. Substrate reversal experiments were conducted to validate substrate activity. The analogs were also tested for agonist activity at the serotonin-2 receptor subtypes (5-HT2A, 5-HT2B, 5-HT2C) using in vitro calcium mobilization assays in transfected HEK293 cells as previously described. These receptors are associated with the pharmacology of abused drugs, as 5-HT2A agonists are thought to be hallucinogenic while […] are associated with valvular heart disease and pulmonary hypertension; activity at these receptors would be considered off-target liabilities. On the other hand, agonists at 5-HT2C may be beneficial as potential pharmacotherapies for drug abuse and appetite suppression.
(§6) HEK293 cells stably expressing the human 5-HT2A receptor were used. The day before the assay, cells were plated into 96-well black-walled assay plates at 40,000 cells/well in DMEM-HG supplemented with 10% fetal bovine serum, 100 units of penicillin and streptomycin, and 15 mM HEPES. The cells were incubated overnight at 37° C., 5% CO2. Prior to the assay, Calcium 5 dye (Molecular Devices) was reconstituted according to the manufacturer instructions. The reconstituted dye was diluted 1:40 in pre-warmed (37° C.) assay buffer (1×HBSS, 20 mM HEPES, 2.5 mM probenecid, pH 7.4 at 37° C.). Growth medium was removed and the cells were gently washed with 100 μL of pre-warmed (37° C.) assay buffer. The cells were incubated for 45 minutes at 37° C., 5% CO2 in 200 μL of the diluted Calcium 5 dye. Serial dilutions of the test compounds were prepared in 1% DMSO/assay buffer, aliquoted into 96-well polypropylene plates, and warmed to 37° C. After the dye-loading incubation period, the cells were pre-treated with 25 μL of 9% DMSO/assay buffer and incubated for 15 min at 37° C. After the pre-treatment incubation period, the plate was read with a FlexStation® II (Molecular Devices). Calcium-mediated changes in fluorescence were monitored every 1.52 seconds over a 60 second time period, with the FlexStation® II adding 25 μL of test compound dilutions at the 19 second time point (excitation at 485 nm, detection at 525 nm). Peak kinetic reduction (SoftMax, Molecular Devices) relative fluorescent units (RFU) were plotted against compound concentration. Data were fit to the appropriate three-parameter logistic curve to generate EC50 values (GraphPad Prism 6.0, GraphPad Software, Inc., San Diego, Calif.). 5-HT2B and 5-HT2C calcium mobilization assays were run in the same manner with stable 5-HT2B and 5-HT2C HEK293 cells except that 35,000 cells/well were used instead of 40,000 cells/well.

[2] = target: T3, Serotonin Transporter (SERT) (Rattus norvegicus, UniProt P31652); test: SERT release assay, rat brain synaptosomes; format: biochemical; conditions: for EC50: release of [3H]5-HT from rat brain synaptosomes, mean±SD (n=3)
T3 construct: synaptosomes were prepared from whole brain minus striatum and cerebellum for the NET and SERT assays; from tissue; host or cells: rat whole brain minus striatum and cerebellum, synaptosomes
Procedure: as §1, §2, §3, §4

[3] = target: Norepinephrine Transporter (NET) (Rattus norvegicus, UniProt Q9WTR4); format: biochemical; conditions: read-out: EC50, (nM ± SD) NET; release of [3H]MPP+ from rat brain synaptosomes; mean±SD (n=3)
[4] = tested on: Norepinephrine Transporter (NET); format: biochemical, rat
5-HT2B = target: T4, 5-HT2B (Homo sapiens, UniProt P41595); test: 5-HT2B calcium mobilization assay in HEK293 cells (agonist activity); format: cell-based
T4 construct: expressed in transfected cells
Procedure: as §5, §6

5-HT2C = target: T5, 5-HT2C (Homo sapiens, UniProt P28335); test: 5-HT2C calcium mobilization assay in HEK293 cells (agonist activity); format: cell-based
T5 construct: expressed in transfected cells
T5 sequence (P28335 33-458): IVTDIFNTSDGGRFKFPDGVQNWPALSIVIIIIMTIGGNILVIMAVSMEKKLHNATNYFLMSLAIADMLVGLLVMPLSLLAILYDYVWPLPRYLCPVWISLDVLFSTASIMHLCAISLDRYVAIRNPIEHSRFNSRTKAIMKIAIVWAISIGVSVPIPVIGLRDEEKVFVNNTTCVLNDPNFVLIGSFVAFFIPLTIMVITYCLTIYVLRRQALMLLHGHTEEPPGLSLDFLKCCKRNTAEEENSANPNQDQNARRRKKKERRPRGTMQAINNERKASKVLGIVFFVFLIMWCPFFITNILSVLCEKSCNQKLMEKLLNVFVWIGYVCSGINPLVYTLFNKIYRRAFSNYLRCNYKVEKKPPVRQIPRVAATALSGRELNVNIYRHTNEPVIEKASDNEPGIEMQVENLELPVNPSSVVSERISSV
Procedure: as §5, §6

[5] = abstinent cocaine-dependent patients; cited from earlier work
[6] = rats; cited from earlier work
[7] = rhesus monkeys, chronic treatment; progressive-ratio, choice, second-order schedules; cited from earlier work
[8] = double-blind, placebo-controlled clinical trial; cited from earlier work
cortical 5-HT = conditions: high doses; cited from earlier work
[9] = calcium mobilization, agonist, HEK293, read-out: 5-HT2A EC50, (nM ± SEM)
[10] = calcium mobilization, agonist, HEK293, read-out: 5-HT2B EC50, (nM ± SEM)
[11] = calcium mobilization, agonist, HEK293, read-out: 5-HT2C EC50, (nM ± SEM)
[12] = calcium mobilization, agonist, HEK293

T4 sequence (P41595 whole entry): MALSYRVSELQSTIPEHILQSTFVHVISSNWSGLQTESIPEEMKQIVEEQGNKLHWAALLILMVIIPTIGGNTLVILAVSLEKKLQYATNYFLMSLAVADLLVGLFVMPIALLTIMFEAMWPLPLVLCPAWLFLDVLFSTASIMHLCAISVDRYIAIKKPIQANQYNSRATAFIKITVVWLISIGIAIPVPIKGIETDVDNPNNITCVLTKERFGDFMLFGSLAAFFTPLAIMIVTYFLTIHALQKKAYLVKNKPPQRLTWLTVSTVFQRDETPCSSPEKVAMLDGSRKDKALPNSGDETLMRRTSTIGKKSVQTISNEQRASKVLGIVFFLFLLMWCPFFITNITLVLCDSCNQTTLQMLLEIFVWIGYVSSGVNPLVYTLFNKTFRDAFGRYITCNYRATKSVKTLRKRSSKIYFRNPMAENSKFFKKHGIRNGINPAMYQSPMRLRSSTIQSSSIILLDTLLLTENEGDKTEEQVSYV
T1 sequence (P23977 whole entry): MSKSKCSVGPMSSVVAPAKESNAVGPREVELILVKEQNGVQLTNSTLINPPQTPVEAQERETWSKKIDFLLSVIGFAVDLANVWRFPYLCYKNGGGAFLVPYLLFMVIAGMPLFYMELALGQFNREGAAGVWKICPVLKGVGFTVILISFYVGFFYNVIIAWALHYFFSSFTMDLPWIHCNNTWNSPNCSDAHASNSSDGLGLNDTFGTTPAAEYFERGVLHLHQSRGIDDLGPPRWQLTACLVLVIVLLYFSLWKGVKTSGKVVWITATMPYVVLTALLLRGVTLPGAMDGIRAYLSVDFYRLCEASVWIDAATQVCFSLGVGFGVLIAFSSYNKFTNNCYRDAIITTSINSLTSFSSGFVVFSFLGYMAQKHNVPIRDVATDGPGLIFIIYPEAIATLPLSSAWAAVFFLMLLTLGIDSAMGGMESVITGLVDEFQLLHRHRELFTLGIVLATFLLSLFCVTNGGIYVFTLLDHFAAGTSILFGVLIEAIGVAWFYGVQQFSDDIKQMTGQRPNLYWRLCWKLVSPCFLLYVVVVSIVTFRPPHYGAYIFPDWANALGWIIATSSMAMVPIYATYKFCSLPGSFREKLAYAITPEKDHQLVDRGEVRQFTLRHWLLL
T3 sequence (P31652 whole entry): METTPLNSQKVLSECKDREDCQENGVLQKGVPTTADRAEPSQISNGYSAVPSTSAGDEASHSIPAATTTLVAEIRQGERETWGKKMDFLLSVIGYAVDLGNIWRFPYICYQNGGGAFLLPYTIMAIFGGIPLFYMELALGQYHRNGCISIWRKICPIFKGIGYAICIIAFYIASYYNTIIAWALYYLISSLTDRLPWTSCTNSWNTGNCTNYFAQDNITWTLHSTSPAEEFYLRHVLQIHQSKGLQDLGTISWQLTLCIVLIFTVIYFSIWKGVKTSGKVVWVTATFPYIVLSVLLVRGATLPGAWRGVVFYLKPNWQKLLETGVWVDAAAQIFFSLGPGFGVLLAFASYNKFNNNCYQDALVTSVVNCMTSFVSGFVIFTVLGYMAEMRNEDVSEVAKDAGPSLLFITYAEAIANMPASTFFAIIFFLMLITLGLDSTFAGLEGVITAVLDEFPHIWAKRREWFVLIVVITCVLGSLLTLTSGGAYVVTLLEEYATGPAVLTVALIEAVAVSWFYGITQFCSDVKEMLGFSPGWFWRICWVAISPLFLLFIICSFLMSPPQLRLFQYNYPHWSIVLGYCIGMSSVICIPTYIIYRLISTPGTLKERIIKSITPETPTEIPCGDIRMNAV
T2 sequence (P28223 whole entry): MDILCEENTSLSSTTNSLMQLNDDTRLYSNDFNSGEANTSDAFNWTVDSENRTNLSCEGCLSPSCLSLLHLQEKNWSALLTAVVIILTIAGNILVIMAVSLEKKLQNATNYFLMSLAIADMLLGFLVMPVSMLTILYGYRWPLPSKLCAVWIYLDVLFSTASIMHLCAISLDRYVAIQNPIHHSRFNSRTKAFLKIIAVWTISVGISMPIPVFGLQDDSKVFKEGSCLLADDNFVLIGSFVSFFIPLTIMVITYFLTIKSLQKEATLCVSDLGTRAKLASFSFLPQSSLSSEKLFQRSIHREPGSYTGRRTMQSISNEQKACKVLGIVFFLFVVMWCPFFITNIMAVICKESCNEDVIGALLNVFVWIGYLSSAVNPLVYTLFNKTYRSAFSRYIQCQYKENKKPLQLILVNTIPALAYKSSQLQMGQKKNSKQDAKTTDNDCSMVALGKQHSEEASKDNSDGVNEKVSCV

SMILES	EC50 [1]	EC50 (human 5-HT2A receptor; [9])	EC50 [3]	selectivity for releasing NE relative to DA (NET compared to DAT) [4]	EC50 (5-HT2B; [10])	EC50 (5-HT2C; [11])	5-HT2A EC50, (nM ± SEM) (human 5-HT2A receptor; [12])	other results
C[C@@H](N)C/C=C\c1ccccc1 [R-8, (1R,3Z)-1-Methyl-4-phenyl-but-3-enylamine]	1420 nM	> 10000 nM	211 nM	6.7 fold	> 10000 nM	> 10000 nM		EC50 (human 5-HT2A receptor; calcium mobilization, read-out: 5-HT2A EC50): > 10000 nM; potency for releasing 5-HT relative to DA (SERT/DAT selectivity) [2]: 1.2 fold; EC50 [2]: 1160 ± 160 nM
CCNC(C)Cc1cccc(C(F)(F)F)c1 (stereo not shown) [fenfluramine]								cocaine craving [5]: significantly reduces cocaine craving; cue-reinstated cocaine-seeking behavior [6]: dose-dependently attenuates cue-reinstated cocaine-seeking behavior
CC(N)/C=C\c1ccccc1 (stereo not shown) [compound 11, (2Z)-1-Methyl-3-phenyl-prop-2-enylamine]	1110 ± 150 nM	> 10000 nM	301 ± 76 nM	3.7 fold	> 10000 nM	> 10000 nM	inactive	
CC(N)/C=C/c1ccccc1 (stereo not shown) [compound 10, (2E)-1-Methyl-3-phenyl-prop-2-enylamine]	666 nM	> 10000 nM	308 ± 100 nM	2.2 fold	> 10000 nM	> 10000 nM	inactive	
C[C@H](N)Cc1ccccc1 [compound 1, S(+)-amphetamine, reference compound]							inactive	cocaine self-administration compared to food-maintained responding [7]: selective dose-dependent decrease in cocaine self-administration; EC50 (human 5-HT2A receptor): > 10000 nM; cocaine use [8]: decrease in cocaine use; EC50 (5-HT2B): > 10000 nM; 5-HT2B EC50, (nM ± SEM) (5-HT2B; [12]): inactive; EC50 (5-HT2C): > 10000 nM; 5-HT2C EC50, (nM ± SEM) (5-HT2C; [12]): inactive
C[C@H](N)C/C=C/c1ccccc1 [S-6, (1S,3E)-1-Methyl-4-phenyl-but-3-enylamine]	206 nM	> 10000 nM	138 nM		> 10000 nM	> 10000 nM	inactive	potency at releasing DA compared to NE [1]: almost equal; potency for 5-HT release compared to NE release [2]: 3.5 fold; potency for releasing 5-HT relative to DA (SERT/DAT selectivity) [2]: 5 fold; EC50 [2]: 40 nM; 5-HT2B EC50, (nM ± SEM) (5-HT2B; [12]): inactive; 5-HT2C EC50, (nM ± SEM) (5-HT2C; [12]): inactive
CC(N)Cc1ccc2ccccc2c1 (stereo not shown) [compound 2]								depletion of cortical 5-HT (cortical 5-HT): do not cause depletion of cortical 5-HT
